Data published in publication PMC10065791 (eLife, 2023).

Assays:
wild-type NL4-3 protease = molecular target: T1, wild-type NL4-3 protease (Human immunodeficiency virus type 1 group M subtype B, UniProt P12497, Q495K); parameters: method as in Lockbaum et al. (ACS Infect Dis. 2019 Feb 8; 5 (2): 316–325); conditions: previously reported, ref Lockbaum et al. (ACS Infect Dis. 2019 Feb 8, 5 (2): 316–325), read-out: Ki WT; cited from earlier work
T1 construct: the gene encoding the desired HIV-1 protease was subcloned into the heat-inducible pXC35 expression vector; made in house

[1] = molecular target: T2, I50V/A71V mutant protease (Human immunodeficiency virus type 1 group M subtype B, UniProt P12497, A559V/I538V/Q495K); parameters: method as in Lockbaum et al. (ACS Infect Dis. 2019 Feb 8; 5 (2): 316–325); conditions: I50V/A71V drug-resistant protease variant; previously reported; ref Lockbaum et al. (ACS Infect Dis. 2019 Feb 8; 5 (2): 316–325); cited from earlier work
T2 construct: the gene encoding the desired HIV-1 protease was subcloned into the heat-inducible pXC35 expression vector; made in house

[2] = test system: mixture of 26 isogenic NL4-3 protease mutant viruses; assay: Selection for resistance in CEMx174 culture with escalating inhibitor, start mixture of 26 isogenic single mutants, Primer ID deep sequencing; type: cell-based, HIV-1
Description: . The selection experiments were performed under two separate starting conditions: first when the starting virus was generated from the NL4-3 clone (this clone closely approximates the clade B consensus for the protease amino acid sequence and will be referred to as ‘wild type’), then again when the starting virus was a mixture of 26 isogenic viruses each with a single mutation associated with drug resistance in the NL4-3 background. […] The initial inhibitor concentration started at low nanomolar concentrations and increased by a factor of 1.5 with each subsequent viral passage (the inhibitor concentration was increased only after the virus spread efficiently through the culture). […] For technical reasons, only five of the selections starting with the mixture of mutants reached an inhibitor concentration as high as 400 nM and are reported here (Figure 2—figure supplement 3). […]
CEMx174 cells were maintained in RPMI 1640 medium with 10% fetal calf serum and penicillin-streptomycin. […] Cell phenotypes were monitored for their ability to generate virus after transfection (293Ts), support viral replication (CEMx174), or report viral infection (TZM-bl). […]

I84V mutant protease = molecular target: T3, I84V mutant protease (Human immunodeficiency virus type 1 group M subtype B, UniProt P12497, I572V/Q495K); parameters: method as in Lockbaum et al. (ACS Infect Dis. 2019 Feb 8; 5 (2): 316–325); conditions: I84V drug-resistant protease variant; previously reported; ref Lockbaum et al. (ACS Infect Dis. 2019 Feb 8; 5 (2): 316–325); cited from earlier work
T3 construct: the gene encoding the desired HIV-1 protease was subcloned into the heat-inducible pXC35 expression vector; made in house

Row | Structure (SMILES) | Ki (wild-type NL4-3 protease) [nM] | Ki [1] [nM] | Abundance of variant at the last time point ([2]; variant 13V/16E/32I/33F/45I/46I/54L/71V/76V/82F/84V, passage 53, [PI] 5000 nM) [%] | Ki (I84V mutant protease) [nM] | Abundance of variant at the last time point ([2]; variant 10F/46I/50V/63P/85V, passage 58, [PI] 400 nM) [%]
1 | CCC(CC)CN(C[C@@H](O)[C@H](Cc1ccccc1)NC(=O)O[C@H]1CO[C@H]2OCC[C@H]21)S(=O)(=O)c1ccc(N)cc1 [UMASS-6] | < 0.005 | 0.1 ± 0.0099 | 62.8 | 0.0128 ± 0.0031 | 
2 | CCC(CC)CN(C[C@@H](O)[C@H](Cc1ccccc1)NC(=O)O[C@H]1CO[C@H]2OCC[C@H]21)S(=O)(=O)c1ccc(OC)cc1 [UMASS-7] |  |  |  |  | 21.0
